Measured values from patent publication US20240150297A1, “NOVEL COMPOUNDS COMPRISING A NEW CLASS OF TRANSTHYRETIN LIGANDS FOR TREATMENT OF COMMON AGE-RELATED COMORBIDITIES” (The Trustees of Columbia University in the City of New York, priority 2021, published 2024).
Like-named read-outs stand apart in the source and are kept apart here.

Legend:
[1] = target: native RBP4 purified from human urine (Homo sapiens (Human), UniProt P02753); assay: RBP4 scintillation proximity (SPA) binding assay; details: read-out: RBP4 SPA IC50; fixed 10 nM 3H-retinol
[2] = Kinetic solubility assay; format: physicochemical; details: PBS pH 7.4
[3] = in vivo; details: male, CD-1, mouse
[4] = target: CYP2D6 (Homo sapiens (Human), UniProt P10635)
[5] = Metabolic stability and clearance in mouse liver microsomes; format: in vitro ADME
Protocol: (§1) The results of metabolic stability determinations for novel compounds and testosterone (positive control) were conducted in the presence of human, rat, mouse, and monkey liver microsomes. Values shown are percent of parent remaining after a 30 minute incubation. All measurements were done in duplicate. Assay results for testosterone were within an acceptable range.
(§2) Mixed-gender human liver microsomes (Lot# 1710084), male Sprague-Dawley rat liver microsomes (Lot# 1610290), male CD-1 mouse liver microsomes (Lot# 1710069), and male Cynomolgous liver microsomes (Lot# 1510193) were purchased from XenoTech. […]. The test article was added into the reaction mixture at a final concentration of 1 μM. The control compound, testosterone, was run simultaneously with the test article in a separate reaction. An aliquot of the reaction mixture (without cofactor) was equilibrated in a shaking water bath at 37° C. for 3 minutes. The reaction was initiated by the addition of cofactor, and the mixture was incubated in a shaking water bath at 37° C. Aliquots (100 μL) were withdrawn at 0, 10, 20, 30, and 60 minutes. Test article and testosterone samples were immediately combined with 400 μL of ice-cold 50/50 acetonitrile (ACN)/H2O containing 0.1% formic acid and internal standard to terminate the reaction. […] Half-lives were calculated using GraphPad software, fitting to a single-phase exponential decay equation.

[6] = target: CYP2C19 (Homo sapiens (Human), UniProt P33261); assay: CYP450 inhibition assay, CYP2C19; format: in vitro ADME; details: pH 7.4, read-out: CYP Inhibition (% Inhibition at 10 μm) 2C19
[7] = Metabolic stability and clearance in human liver microsomes; format: in vitro ADME
Protocol: as §1, §2

[8] = CD-1 mice
[9] = Metabolic stability and clearance in cynomolgus monkey liver microsomes; format: in vitro ADME
Protocol: as §1, §2

[10] = target: peroxisome proliferator-activated receptor-gamma (PPARγ) receptor (Homo sapiens (Human), UniProt P37231); assay: PPARγ activity
[11] = Plasma protein binding, human; format: in vitro ADME
Text: The peak areas of the test compound in the buffer and test samples were used to calculate percent binding and recovery according to the following formulas:
Areap=Peak area of analyte in protein matrix Areab=Peak area of analyte in buffer Areac=Peak area of analyte in control sample

[12] = target: CYP2C9 (Homo sapiens (Human), UniProt P11712); assay: CYP450 inhibition assay, CYP2C9; format: in vitro ADME
[13] = Metabolic stability and clearance in rat liver microsomes; format: in vitro ADME
Protocol: as §1, §2

[14] = test system: serum RBP4; assay: Serum RBP4 measurement after single oral dose in mice (PK-PD); format: in vivo, mouse
Protocol: FIG. 6. Pharmacokinetic and pharmacodynamic properties of 18a in mice. […]. Data are presented as means±SD. Three mice per treatment group were used in the PK-PD study.
Blood samples were collected from a tail vein. Whole blood was drawn into a centrifuge tube and was allowed to clot at room temperature for 30 minutes followed by centrifugation at 2000 g for 15 minutes at […] to collect serum. […] Whole blood was drawn into a centrifuge tube and was allowed to clot at room temperature for 30 min followed by centrifugation at 2000 g for 15 min at +4° C to collect serum.
There was no effect of compound dosing on serum TTR levels (data not shown). […].

[15] = target: TTR isolated from human plasma (Homo sapiens (Human), UniProt P02766); assay: Fluorescence polarization TTR tetramer binding assay; details: fixed 25 μM FITC-coupled TTR FP probe
[16] = target: human TTR (Homo sapiens (Human), UniProt P02766); assay: Low pH-induced TTR aggregation assay (SDS-PAGE/Western blot); format: biochemical; details: 50 μM compound, pH 4.0, 72 h, 37° C.
Protocol: FIG. 5. […]. Bar graphs represent pixel volume means±S.D. of the scanned bands on the immunoblots in arbitrary units for TTR high-molecular-weight aggregates (B), dimers (C), and monomers (D). Statistical significance was determined by one-way ANOVA with Holm-Sidak post hoc test; *, p≤0.05**, p≤0.01***, p≤0.001; ****, p≤0.0001 compared to TTR aggregation+DMSO group (pH4.0) *, p=0.05, **, p≤0.01; ***, p≤0.001; ****, […] compare to TTR without aggregation group (pH=7.5).
The ability of test compounds to prevent TTR aggregation was evaluated under the acidic conditions that favor TTR aggregation and fibril formation. […] At the end of the incubation, 3.5 μl 500 mM sodium phosphate (Sigma #S5136) buffer (pH=8.0) was added to each sample for neutralization and 0.6 μl 5% CHAPS (Sigma #C5070) as a detergent to prevent reassociation of protein. The cross-linking was performed by adding 1.5 μl 5% glutaraldehyde solution (Sigma# G6257). After 4 min, the reaction was stopped by the addition of 2.5 μl freshly made 5% NaBH4. […] Band intensity for TTR monomer and TTR aggregates was quantified from scanned images of the blots.
The ability of TTR ligands to act as kinetic stabilizers of TTR tetramers was assessed in vitro using a low pH-induced TTR aggregation SDS-PAGE assay (Coelho, T. et al. 2016; Cruz, M. W. 2019). […]

[17] = 441 ATTR-CM patients; cited from earlier work

Chain of CYP2C19 (P33261 whole entry): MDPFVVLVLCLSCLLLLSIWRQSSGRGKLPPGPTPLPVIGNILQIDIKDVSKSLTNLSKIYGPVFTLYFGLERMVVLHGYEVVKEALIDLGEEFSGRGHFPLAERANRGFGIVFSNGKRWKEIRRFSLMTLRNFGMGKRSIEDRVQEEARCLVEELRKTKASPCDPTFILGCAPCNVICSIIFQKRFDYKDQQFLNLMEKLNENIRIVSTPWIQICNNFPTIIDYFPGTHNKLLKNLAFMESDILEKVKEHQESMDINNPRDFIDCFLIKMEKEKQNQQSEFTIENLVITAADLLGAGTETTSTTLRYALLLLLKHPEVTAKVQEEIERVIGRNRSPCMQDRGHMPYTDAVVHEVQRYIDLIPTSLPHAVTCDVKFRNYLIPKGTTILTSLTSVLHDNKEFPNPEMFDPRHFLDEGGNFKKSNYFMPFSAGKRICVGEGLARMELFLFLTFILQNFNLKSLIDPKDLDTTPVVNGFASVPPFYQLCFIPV
Chain of CYP2D6 (P10635 whole entry): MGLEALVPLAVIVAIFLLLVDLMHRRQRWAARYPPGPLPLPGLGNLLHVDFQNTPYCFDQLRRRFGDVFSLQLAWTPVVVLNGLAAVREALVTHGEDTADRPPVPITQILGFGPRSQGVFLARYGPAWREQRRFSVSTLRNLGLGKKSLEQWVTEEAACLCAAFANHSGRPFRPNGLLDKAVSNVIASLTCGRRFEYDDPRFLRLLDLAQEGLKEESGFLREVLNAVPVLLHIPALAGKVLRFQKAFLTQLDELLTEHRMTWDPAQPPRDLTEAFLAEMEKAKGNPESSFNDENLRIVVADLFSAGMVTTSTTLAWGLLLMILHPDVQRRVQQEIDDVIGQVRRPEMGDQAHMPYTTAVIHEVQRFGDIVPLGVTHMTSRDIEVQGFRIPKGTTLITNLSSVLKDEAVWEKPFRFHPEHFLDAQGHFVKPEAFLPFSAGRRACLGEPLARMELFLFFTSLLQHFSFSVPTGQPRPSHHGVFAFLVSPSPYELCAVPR
Chain of CYP2C9 (P11712 whole entry): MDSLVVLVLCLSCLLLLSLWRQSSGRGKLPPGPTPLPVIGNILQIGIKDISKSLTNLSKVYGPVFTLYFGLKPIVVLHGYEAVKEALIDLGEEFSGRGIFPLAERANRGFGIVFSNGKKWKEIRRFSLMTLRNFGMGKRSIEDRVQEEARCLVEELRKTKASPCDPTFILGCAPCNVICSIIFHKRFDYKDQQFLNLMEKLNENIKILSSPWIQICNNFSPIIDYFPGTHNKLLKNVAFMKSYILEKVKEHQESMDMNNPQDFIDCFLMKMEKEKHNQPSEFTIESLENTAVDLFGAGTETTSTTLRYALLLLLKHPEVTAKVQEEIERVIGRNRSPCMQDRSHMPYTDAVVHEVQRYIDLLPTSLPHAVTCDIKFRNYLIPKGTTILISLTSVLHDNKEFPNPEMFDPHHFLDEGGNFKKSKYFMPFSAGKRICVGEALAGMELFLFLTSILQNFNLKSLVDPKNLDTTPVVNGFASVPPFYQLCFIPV
Chain of peroxisome proliferator-activated receptor-gamma (PPARγ) receptor (P37231 whole entry, species assumed): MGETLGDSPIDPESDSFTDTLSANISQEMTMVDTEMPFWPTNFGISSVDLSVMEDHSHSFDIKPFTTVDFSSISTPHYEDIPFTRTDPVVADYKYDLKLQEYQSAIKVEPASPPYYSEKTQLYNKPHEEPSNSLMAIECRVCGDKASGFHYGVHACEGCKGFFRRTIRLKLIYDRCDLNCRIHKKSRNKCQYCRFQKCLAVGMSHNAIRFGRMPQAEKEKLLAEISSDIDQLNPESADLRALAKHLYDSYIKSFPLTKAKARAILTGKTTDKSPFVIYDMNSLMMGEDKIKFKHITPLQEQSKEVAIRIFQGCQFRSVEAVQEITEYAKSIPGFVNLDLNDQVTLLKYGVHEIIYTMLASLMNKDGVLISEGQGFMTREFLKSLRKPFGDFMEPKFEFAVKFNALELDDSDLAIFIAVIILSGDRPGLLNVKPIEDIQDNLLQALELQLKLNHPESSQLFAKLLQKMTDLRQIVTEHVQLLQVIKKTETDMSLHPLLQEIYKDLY

In the case of `Cc1n[nH]c(C)c1CCCOc1cc(C(=O)O)ccc1F` [AG10 (4), AG10, reference compound], the IC50 [1] is reported as > 30 µM.
`Cc1n[nH]c(C)c1N1CCN(c2cc(C(=O)O)ccc2F)CC1` [Compound 18a, 3-(4-(3,5-Dimethyl-1H-pyrazol-4-yl)piperazin-1-yl)-4-fluorobenzoic Acid] gave a Kinetic solubility [2] of 184.5 µM, a clearance ([3]; iv, 2 mg/kg) of 5.9 mL/min/kg and a half-life ([3]; iv, 2 mg/kg) of 5.08 h. For the same compound, the AUC(0-inf) ([3]; po, 5 mg/kg) was 16100 ng·h/mL, the Cmax ([3]; po, 5 mg/kg) was 1560 ng/mL and the “CYP Inhibition (% Inhibition at 10 μm) 2D6” value [4] was 2D6 - 8.1%. For the same compound, the “Liver Microsomal Stability (% remaining at 30 min) MLM” value ([5]; 30 minute incubation) was 102%, the microsomal CLint at 1 μM ([5]; male, CD-1, mouse liver microsomes) was < 0.0231 µL/min/mg and the inhibition at 10 µM [6] was 3.1%. For the same compound, the “Liver Microsomal Stability (% remaining at 30 min) HLM” value ([7]; 30 minute incubation) was 93%, the microsomal CLint at 1 μM ([7]; both sexes, human liver microsomes) was < 0.0231 µL/min/mg and the AUCINF ([8]; IV 2 mg/kg) was 6242 ng·h/mL. The AUClast ([8]; IV 2 mg/kg) was 6214 ng·h/mL, the “CL, total body clearance” value ([8]; IV 2 mg/kg) was 5.9 mL/min/kg and the Vss ([8]; IV 2 mg/kg) was 2.18 L/kg. For the same compound, the t1/2 ([8]; IV 2 mg/kg) was 5.08 h, the “% F, oral bioavailability” value ([8]; PO 5 mg/kg vs IV 2 mg/kg) was 103% and the AUCINF ([8]; PO 5 mg/kg) was 16073 ng·h/mL. For the same compound, the AUClast ([8]; PO 5 mg/kg) was 16040 ng·h/mL, the t1/2 ([8]; PO 5 mg/kg) was 5.38 h and the “Liver Microsomal Stability (% remaining at 30 min) cyno LM” value ([9]; 30 minute incubation) was 94%. For the same compound, the microsomal CLint at 1 μM ([9]; male, cynomolgus monkey liver microsomes, read-out: Microsomal CLint, cyno) was < 0.0231 µL/min/mg, the EC50 [10] was > 100 µM and the “% PPB human” value [11] was 83%. For the same compound, the “CYP Inhibition (% Inhibition at 10 μm) 2C9” value [12] was 2C9 - 10.4%, the “Liver Microsomal Stability (% remaining at 30 min) RLM” value ([13]; 30 minute incubation) was 98% and the microsomal CLint at 1 μM ([13]; male, Sprague-Dawley, rat liver microsomes) was < 0.0231 µL/min/mg. The “effect on serum TTR levels” value ([14]; after compound dosing, data not shown) was “no effect” and the “maximal reduction in serum RBP4” value ([14]; single 25 mg/kg oral dose, 2 h after administration) was 66%.
In the case of `Cc1n[nH]c(C)c1N1CCN(c2cccc(C(=O)O)c2)CC1` [Compound 18b, 3-(4-(3,5-Dimethyl-1H-pyrazol-4-yl)piperazin-1-yl)benzoic Acid], the IC50 [1] is reported as > 30 µM.
In the case of `COc1ccc(C(=O)O)cc1N1CCN(c2c(C)n[nH]c2C)CC1` [Compound 18c, 3-(4-(3,5-Dimethyl-1H-pyrazol-4-yl)piperazin-1-yl)-4-methoxybenzoic Acid], the IC50 [1] is reported as > 3 µM and the IC50 [15] is reported as 0.3 µM.
With `Cc1ccc(C(=O)O)cc1N1CCN(c2c(C)n[nH]c2C)CC1` [Compound 18d, 3-(4-(3,5-Dimethyl-1H-pyrazol-4-yl)piperazin-1-yl)-4-methylbenzoic Acid] the IC50 [1] was > 3 µM.
In the case of `Cc1n[nH]c(C)c1N1CCN(c2cc(C(=O)O)ccc2C(F)(F)F)CC1` [Compound 18e, 3-(4-(3,5-Dimethyl-1H-pyrazol-4-yl)piperazin-1-yl)-4-(trifluoromethyl)benzoic Acid], the IC50 [1] is reported as > 3 µM.
For `Cc1n[nH]c(C)c1N1CCN(c2cc(C(=O)O)ccc2Cl)CC1` [Compound 18f, 4-Chloro-3-(4-(3,5-dimethyl-1H-pyrazol-4-yl)piperazin-1-yl)benzoic Acid], the IC50 [1] was > 3 µM.
For `Cc1n[nH]c(C)c1N1CCN(c2cccc(C(=O)O)c2F)CC1` [Compound 18g, 3-(4-(3,5-Dimethyl-1H-pyrazol-4-yl)piperazin-1-yl)-2-fluorobenzoic Acid], the IC50 [1] was > 3 µM.
In the case of `Cc1n[nH]c(C)c1N1CCN(c2ccc(F)c(C(=O)O)c2)CC1` [Compound 18h, 5-(4-(3,5-Dimethyl-1H-pyrazol-4-yl)piperazin-1-yl)-2-fluorobenzoic Acid], the IC50 [1] is reported as > 3 µM.
With `Cc1n[nH]c(C)c1N1CCN(c2cc(F)cc(C(=O)O)c2)CC1` [Compound 18i, 3-(4-(3,5-Dimethyl-1H-pyrazol-4-yl)piperazin-1-yl)-5-fluorobenzoic Acid] the IC50 [1] was > 3 µM.
For `Cc1cc(F)c(N2CCN(c3c(C)n[nH]c3C)CC2)cc1C(=O)O` [Compound 18j, 5-(4-(3,5-Dimethyl-1H-pyrazol-4-yl)piperazin-1-yl)-4-fluoro-2-methylbenzoic Acid], the IC50 [1] was > 3 µM.
In the case of `Cc1noc(C)c1N1CCN(c2cc(C(=O)O)ccc2F)CC1` [Compound 20, 3-(4-(3,5-Dimethylisoxazol-4-yl)piperazin-1-yl)-4-fluorobenzoic Acid], the IC50 [1] is reported as > 3 µM.
With `Cc1n[nH]c(C)c1N1CCN(c2cc(C(N)=O)ccc2F)CC1` [Compound 21, 3-(4-(3,5-Dimethyl-1H-pyrazol-4-yl)piperazin-1-yl)-4-fluorobenzamide] the IC50 [1] was > 3 µM.
In the case of `Cc1n[nH]c(C)c1N1CCN(c2cc(-c3nn[nH]n3)ccc2F)CC1` [Compound 22, 1-(3,5-Dimethyl-1H-pyrazol-4-yl)-4-(2-fluoro-5-(2H-tetrazol-5-yl)phenyl)piperazine], the IC50 [1] is reported as > 3 µM.
In the case of `CC/C(=C(/CC)c1ccc(O)cc1)c1ccc(O)cc1` [Diethylstilbesterol], the Kinetic solubility [2] is reported as 7.0 µM.
In the case of `CC(=O)N1CCN(c2ccc(OCC3COC(Cn4ccnc4)(c4ccc(Cl)cc4Cl)O3)cc2)CC1` (stereo not shown) [Ketoconazole], the Kinetic solubility [2] is reported as 152.8 µM.
For `O=C(O)c1ccc2nc(-c3cc(Cl)cc(Cl)c3)oc2c1` [Tafamadis (3), tafamidis], the IC50 [1] is listed as > 30 µM, the “formation of high molecular weight forms of TTR” value [16] is listed as “significantly inhibited” and the “reduction of rate of cardiovascular-related hospitalizations compared to placebo” value [17] is listed as 32%. For the same compound, the “reduction of risk of death compared to placebo” value [17] was 30%.
